From ChEMBL document CHEMBL4184320, “Optimization of Selective Mitogen-Activated Protein Kinase Interacting Kinases 1 and 2 Inhibitors for the Treatment of Blast Crisis Leukemia” (J Med Chem, 2018)
Values after ≈ are worked out from the molar mass of the structure shown.

Legend:
[1] = target: MAP kinase-interacting serine/threonine-protein kinase 1 (Homo sapiens, UniProt Q9BUB5)
Description: Inhibition of GST-tagged MNK1 (37 to 341 residues) (unknown origin) expressed in Escherichia coli BL21(DE3) using JH3 peptide as substrate preincubated for 10 mins followed by substrate and ATP addition measured after 60 mins

[2] = Thermodynamic solubility of the compound at pH 4 to 7.4 pION buffer after 18 hrs by UV spectrophotometric analysis; type: physicochemical; conditions: read-out: Therm_solubility
[3] = target: MAP kinase-interacting serine/threonine-protein kinase 2 (Homo sapiens, UniProt Q9HBH9)
Description: Inhibition of GST-tagged MNK2 (72 to 385 residues) (unknown origin) expressed in Escherichia coli BL21(DE3) using JH3 peptide as substrate preincubated for 10 mins followed by substrate and ATP addition measured after 60 mins

[4] = Octanol-phosphate buffer partition coefficient, logD of compound at pH 7.4 by HPLC-UV analysis; type: physicochemical
[5] = Permeability of the compound by PAMPA; type: ADME; conditions: read-out: permeability
[6] = target: MAP kinase-interacting serine/threonine-protein kinase 1/2 (Homo sapiens, UniProt Q9HBH9+Q9BUB5); assay: Inhibition of MNK1/2 in human HeLa cells assessed as decrease in eIF4E phosphorylation at Ser209 after 2 hrs by AlphaScreen assay; type: cell-based
[7] = Cmax in CD-1 mouse at 5 mg/kg, po administered via gavage as single dose by LC-MS/MS analysis; type: ADME, organism-based; set-up: dose 5 mg/kg, route oral; conditions: in vivo
[8] = Efflux ratio of apparent permeability in human Caco2 cells by LC-MS/MS analysis; type: ADME, cell-based; conditions: Caco-2
[9] = Apparent permeability of the compound across apical side to basolateral side in human Caco2 cells by LC-MS/MS analysis; type: ADME, cell-based; conditions: Caco-2
[10] = AUClast in CD-1 mouse at 5 mg/kg, po administered via gavage as single dose by LC-MS/MS analysis; type: ADME, organism-based; set-up: dose 5 mg/kg, time 0 - last, route oral; conditions: in vivo
in vitro [11] = conditions: human, liver microsomes
Description: Half life in human liver microsomes at 1 uM in presence of NADPH by LC-MS/MS analysis

in vitro [12] = conditions: mouse, liver microsomes
Description: Half life in mouse liver microsomes at 1 uM in presence of NADPH by LC-MS/MS analysis

Cytochrome P450 3A4 = Cytochrome P450 3A4 (Homo sapiens, UniProt P08684)
Description: Inhibition of CYP3A4 in human liver microsomes using midazolam as substrate preincubated for 5 mins followed by NADPH addition measured after 5 mins by LC-MS/MS analysis

Cytochrome P450 2D6 = Cytochrome P450 2D6 (Homo sapiens, UniProt P10635); assay: Inhibition of CYP2D6 in human liver microsomes using dextromethorphan as substrate preincubated for 5 mins followed by NADPH addition by LC-MS/MS analysis; type: ADME
[13] = Protein binding in human plasma at […] after 5 hrs by LC-MS/MS analysis; type: ADME, cell-free; conditions: read-out: PPB (converted)
[14] = Protein binding in mouse plasma at […] after 5 hrs by LC-MS/MS analysis; type: ADME, cell-free; conditions: read-out: PPB (converted)

Chain of MAP kinase-interacting serine/threonine-protein kinase 2 (Q9HBH9 whole entry): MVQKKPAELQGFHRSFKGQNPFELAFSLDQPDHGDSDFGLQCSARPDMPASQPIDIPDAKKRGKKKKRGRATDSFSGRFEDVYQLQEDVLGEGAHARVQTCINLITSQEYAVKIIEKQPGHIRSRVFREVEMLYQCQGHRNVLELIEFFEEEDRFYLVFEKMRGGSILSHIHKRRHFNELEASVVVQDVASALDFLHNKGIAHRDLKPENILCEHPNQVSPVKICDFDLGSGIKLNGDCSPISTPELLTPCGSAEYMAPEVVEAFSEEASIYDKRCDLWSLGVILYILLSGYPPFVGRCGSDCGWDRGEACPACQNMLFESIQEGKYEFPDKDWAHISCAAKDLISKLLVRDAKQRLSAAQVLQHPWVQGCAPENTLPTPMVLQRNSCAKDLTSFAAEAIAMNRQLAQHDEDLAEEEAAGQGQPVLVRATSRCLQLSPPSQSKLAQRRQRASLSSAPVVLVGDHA
Chain of Cytochrome P450 2D6 (P10635 whole entry): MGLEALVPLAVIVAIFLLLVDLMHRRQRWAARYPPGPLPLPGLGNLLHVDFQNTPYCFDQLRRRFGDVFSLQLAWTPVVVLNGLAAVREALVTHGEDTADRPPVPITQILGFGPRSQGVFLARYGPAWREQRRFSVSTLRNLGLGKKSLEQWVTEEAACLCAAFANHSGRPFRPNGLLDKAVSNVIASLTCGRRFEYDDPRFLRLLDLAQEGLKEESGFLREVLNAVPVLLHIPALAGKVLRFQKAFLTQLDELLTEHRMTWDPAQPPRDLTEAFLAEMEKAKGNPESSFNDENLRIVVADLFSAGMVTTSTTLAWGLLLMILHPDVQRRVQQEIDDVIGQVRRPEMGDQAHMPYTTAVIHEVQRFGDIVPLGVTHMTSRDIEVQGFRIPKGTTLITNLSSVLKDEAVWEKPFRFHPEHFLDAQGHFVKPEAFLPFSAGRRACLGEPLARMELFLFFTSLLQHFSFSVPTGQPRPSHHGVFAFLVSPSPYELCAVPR
Chain of MAP kinase-interacting serine/threonine-protein kinase 1 (Q9BUB5 whole entry): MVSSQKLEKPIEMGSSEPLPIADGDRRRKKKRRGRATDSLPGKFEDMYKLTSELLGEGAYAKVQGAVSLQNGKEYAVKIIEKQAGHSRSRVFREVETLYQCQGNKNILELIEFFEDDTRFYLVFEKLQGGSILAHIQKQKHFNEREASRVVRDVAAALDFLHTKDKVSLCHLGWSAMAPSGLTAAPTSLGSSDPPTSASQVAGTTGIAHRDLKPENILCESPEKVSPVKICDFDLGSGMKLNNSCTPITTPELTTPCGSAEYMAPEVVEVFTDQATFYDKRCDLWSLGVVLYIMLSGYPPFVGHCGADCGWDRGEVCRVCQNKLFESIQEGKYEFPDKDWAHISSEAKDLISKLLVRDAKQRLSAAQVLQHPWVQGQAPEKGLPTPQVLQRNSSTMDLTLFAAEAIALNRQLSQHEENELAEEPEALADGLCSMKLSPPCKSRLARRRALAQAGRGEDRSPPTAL
Chain of Cytochrome P450 3A4 (P08684 whole entry): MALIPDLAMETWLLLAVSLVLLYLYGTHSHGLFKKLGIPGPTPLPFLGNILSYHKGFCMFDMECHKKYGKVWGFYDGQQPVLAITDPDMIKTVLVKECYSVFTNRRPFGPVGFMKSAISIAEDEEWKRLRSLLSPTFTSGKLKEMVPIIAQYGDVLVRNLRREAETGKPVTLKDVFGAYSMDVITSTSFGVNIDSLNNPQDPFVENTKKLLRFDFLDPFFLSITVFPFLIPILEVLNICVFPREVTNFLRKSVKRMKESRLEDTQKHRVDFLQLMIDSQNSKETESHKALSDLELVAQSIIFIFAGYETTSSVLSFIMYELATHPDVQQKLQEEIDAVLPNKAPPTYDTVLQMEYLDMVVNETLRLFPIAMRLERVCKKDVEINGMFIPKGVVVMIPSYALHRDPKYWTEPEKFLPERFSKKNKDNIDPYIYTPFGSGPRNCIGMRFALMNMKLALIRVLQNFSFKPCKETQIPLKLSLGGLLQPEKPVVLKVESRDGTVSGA

Compound	IC50 [1] [nM]	solubility thermodynamic at 18 h [2] [µg/mL]	IC50 [3] [nM]	logD [4]	Papp [5] [×10⁻⁶ cm/s]	IC50 [6] [nM]	Cmax [7] [ng/mL]	efflux ratio [8]	Papp A→B [9] [×10⁻⁶ cm/s]	AUC(0-t) [10] [ng·h/mL]	half-life at 1 µM (in vitro [11]) [min]	half-life at 1 µM (in vitro [12]) [min]	IC50 (Cytochrome P450 3A4) [nM]	IC50 (Cytochrome P450 2D6) [nM]	fraction unbound at 5 h [13]	fraction unbound at 5 h [14]
CN1CCN(C(=O)c2ccc(-c3cn4c(-c5ccc(O)cc5)cnc4cn3)cc2)CC1	284	114 (≈ 276 µM)	140	2.25	34.7	189										
CN(C)C1CCN(C(=O)c2ccc(-c3ccc4ncc(-c5ccc(C#N)cc5)n4n3)cc2)CC1	9	148 (≈ 328 µM)	11	2.19	75.3	431	69	13.3	3	347	47	> 60				
CN1CCN(C(=O)c2ccc(-c3ccc4ncc(-c5ccc(C#N)cc5)n4c3)cc2)CC1	84	137 (≈ 325 µM)	72	2.48	81.9	229		4.84	5.43		20	11	3900	> 20000	0.003	0.0967
CN1CCN(C(=O)c2ccc(-c3cn4c(-c5ccc(C(F)F)cc5)cnc4cn3)cc2)CC1	369	66.9 (≈ 150 µM)	336	2.55	76.2	1630										
Oc1ccc(-c2cnc3cnc(-c4ccccc4)cn23)cc1	528		415			819										
CC(=O)Nc1cn2c(-c3ccc(O)cc3)cnc2cn1	789		515			> 2500										
CC(=O)N1CCN(C(=O)c2ccc(-c3cn4c(-c5ccc(O)cc5)cnc4cn3)cc2)CC1	224	144 (≈ 326 µM)	160	1.68	2.82	> 2500										
O=C(c1ccc(-c2cn3c(-c4ccc(O)cc4)cnc3cn2)cc1)N1CCOCC1	125	11.5 (≈ 28.7 µM)	113	2.21	50.2	130										
CN1CCN(C(=O)c2ccc(-c3ccc4ncc(-c5ccc(C#N)cc5)n4n3)cc2)CC1	20	86 (≈ 204 µM)	25	2.82	25	326		4.84	14.6		17	23	> 20000	> 20000	0.001	0.041
CN1CCN(C(=O)c2ccc(-c3cn4c(-c5ccccc5)cnc4cn3)cc2)CC1	2680		1430			1920										
O=C(Nc1cn2c(-c3ccc(O)cc3)cnc2cn1)c1ccccc1	3350		1080													
Cc1ccc(-c2cnc3cnc(-c4ccc(C(=O)N5CCN(C)CC5)cc4)cn23)cc1	600		410			1210										
CN1CCN(C(=O)c2ccc(-c3cn4c(-c5ccc(C(N)=O)cc5)cnc4cn3)cc2)CC1	294	126 (≈ 286 µM)	187	0.98	1.78	> 2500										
CN(C)C1CCN(C(=O)c2ccc(-c3cn4c(-c5ccc(C#N)cc5)cnc4cn3)cc2)CC1	238	> 45	143	0.73	64.7	640		7.57	1.14		> 60	> 60	> 20000	> 20000		
CN1CCN(C(=O)c2ccc(-c3cn4c(-c5ccc(C(F)(F)F)cc5)cnc4cn3)cc2)CC1	574	90.4 (≈ 194 µM)	389	2.95	87.4	1990										
N#Cc1ccc(-c2cnc3ccc(-c4ccc(C(=O)N5CCNCC5)cc4)nn23)cc1	16	115 (≈ 282 µM)	26	2	45.8	220		29.9	1.13		> 60	42	5600			
CN1CCN(C(=O)c2ccc(-c3cn4c(-c5cccc(O)c5)cnc4cn3)cc2)CC1	1300	116 (≈ 281 µM)	742	2.31	33.2	1330										
CN1CCN(C(=O)c2ccc(-c3cn4c(-c5ccc(Cl)cc5)cnc4cn3)cc2)CC1	331	118 (≈ 273 µM)	217	2.96	71.3	759										
CN1CCN(C(=O)c2ccc(-c3cn4c(-c5ccc(C(=O)O)cc5)cnc4cn3)cc2)CC1	700	> 22	355	-1.37	0.1	> 2500										
N#Cc1ccc(-c2cnc3cnc(-c4ccc(C(=O)N5CCOCC5)cc4)cn23)cc1	570	11.1 (≈ 27.1 µM)	454	1.77	43.1	748		1.73	17.9		> 60	> 60	> 20000	> 20000		
CN1CCN(C(=O)c2ccc(-c3cn4c(-c5ccc(C(=O)NO)cc5)cnc4cn3)cc2)CC1	60		31			> 2500										
NC(=O)c1ccc(-c2cn3c(-c4ccc(O)cc4)cnc3cn2)cc1	310		193	2.03	22.7	1080					60	46	> 20000	> 20000		
CN1CCN(C(=O)c2ccc(-c3cn4c(-c5ccccc5O)cnc4cn3)cc2)CC1	9500		5170													
